The record followed here is US8889878B2, “Haloalky-substituted amides as insecticides and acaricides” (Bayer CropScience AG, priority 2009, dated 2014).

For data set [1], the system named is Ctenocephalides felis. The experiment in a line: Ctenocephalides felis oral (CTECFE), Example 2. It counts as in vivo. Particulars: application rate 20 ppm in citrated cow's blood, after 2 days. As to the method:
Ctenocephalides felis Oral ([…]) • Solvent: 1 part by weight of dimethyl sulphoxide For the purpose of preparing an active ingredient formulation, 10 mg of active ingredient are mixed with 0.5 ml of dimethyl sulphoxide. A portion of the concentrate was diluted with citrated cow's blood and the desired concentration was prepared. 20 unfed adult fleas (Ctenocephalides felis) are placed into a chamber sealed at the top and bottom with gauze. A metal cylinder with its lower end sealed with Parafilm is placed onto the chamber. The cylinder contains the blood-active ingredient preparation, which can be consumed by the fleas through the Parafilm membrane. After 2 days, the kill rate in % is determined. 100% means that all fleas were killed; 0% means that no fleas were killed.

Data set [2] is described as follows: logP by HPLC on reverse-phase column (EEC Directive 79/831 Annex V.A8). Format: physicochemical. Conditions: HPLC-MS. As for the experimental part:
The logP values reported in the above Tables and Preparation Examples were determined according to EEC Directive 79/831 Annex V.A8 by HPLC (High Performance Liquid Chromatography) on a reverse-phase column (C18). Temperature 43° C.

The test system of data set [3] is Lucilia cuprina larvae. The data set can be described thus: Lucilia cuprina test (LUCICU), Example 3. Format: in vivo. Conditions: application rate 20 ppm, treated horsemeat, after 2 days. As to the method:
Lucilia cuprina Test (LUCICU) • Solvent: dimethyl sulphoxide To prepare an active ingredient formulation, 10 mg of active ingredient are mixed with 0.5 ml of dimethyl sulphoxide, and the concentrate is diluted with water to the desired concentration. Vessels containing horsemeat which has been treated with the active ingredient formulation of the desired concentration are populated with Lucilia cuprina larvae. After 2 days, the kill rate in % is determined. 100% means that all larvae were killed; 0% means that no larvae were killed.

Data set [4] has as its system Boophilus microplus. The data set can be described thus: Boophilus microplus test (BOOPMI injection), Example 11. Format: in vivo. Conditions: application rate 20 μg/animal, injected into abdomen, after 7 days. A digest of the protocol:
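Efficacy rated from fertile egg laying: 100% means none of the ticks laid fertile eggs, read after 7 days. Compound, dissolved and diluted in DMSO, was delivered by abdominal injection, and ticks were kept in dishes under climate control.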

The test system of data set [5] is Boophilus microplus. The data set can be described thus: Boophilus microplus test (BOOPMI injection), Example 1. Conditions: application rate 20 μg/animal, injected into abdomen, after 7 days. Format: in vivo. As for the experimental part: Boophilus microplus Test (BOOPMI Injection) • Solvent: dimethyl sulphoxide To prepare an active ingredient formulation, 10 mg of active ingredient are mixed with 0.5 ml of solvent and the concentrate is diluted with water to the desired concentration. The active ingredient solution was injected into the abdomen (Boophilus microplus), and the animals were transferred to dishes and stored in a climate-controlled room. The efficacy was assessed by the number of fertile eggs laid. After 7 days, the efficacy in % is determined. 100% means that no tick laid fertile eggs.

For data set [6], the system named is Lucilia cuprina larvae. The experiment in a line: Lucilia cuprina test (LUCICU), Example 13. Format: in vivo. Conditions: application rate 100 ppm, treated horsemeat, after 2 days. As to the method: Lucilia cuprina Test (LUCICU) • Solvent: dimethyl sulphoxide To prepare an appropriate active ingredient formulation, 10 mg of active ingredient are mixed with 0.5 ml of dimethyl sulphoxide, and the concentrate is diluted with water to the desired concentration. Vessels containing horsemeat which has been treated with the active ingredient formulation of the desired concentration are populated with about 20 Lucilia cuprina larvae. After 2 days, the kill rate in % is determined. 100% means that all larvae were killed; 0% means that no larvae were killed.

Data set [7] deals with armyworm (Spodoptera frugiperda). The experiment in a line: Spodoptera frugiperda test (SPODFR spray treatment), Example 15. Format: in vivo. Conditions: maize leaf discs sprayed, after 7 days. A digest of the protocol: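 Caterpillars placed on dried, sprayed Zea mays leaf discs; formulation of acetone, dimethylformamide and emulsifier diluted with emulsifier-containing water to test concentration. Percent kill scored on day 7.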

The subject of data set [8] is red spider mite (Tetranychus urticae). The experiment in a line: Tetranychus test, OP-resistant (TETRUR spray treatment), Example 8. Format: in vivo. Particulars: application rate 20 g/ha, common bean leaf discs sprayed, after 6 days. A digest of the protocol: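 Bean (Phaseolus vulgaris) leaf discs carrying all stages of OP-resistant Tetranychus urticae sprayed with compound in acetone/DMF with emulsifier, diluted in water to the test concentration. Mortality scored after 6 days as % efficacy (100% = all mites killed).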

Data set [9] relates to mustard beetle (Phaedon cochleariae). The experiment in a line: Phaedon test (PHAECO spray treatment), Example 7. It counts as in vivo. Particulars: application rate 20 g/ha, china cabbage leaf discs sprayed, after 7 days. A digest of the protocol: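 Spray formulation (acetone/DMF with alkylaryl polyglycol ether, diluted in emulsifier-containing water) applied to Chinese cabbage leaf discs, which were dried and then stocked with mustard beetle larvae. Efficacy scored at 7 days as % larvae killed (100% all, 0% none).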

For data set [10], the system named is Musca domestica adults. The data set can be described thus: Musca domestica test (MUSCDO), Example 14. It counts as in vivo. Particulars: application rate 100 ppm, treated sponge, after 2 days. As to the method: Musca domestica Test (MUSCDO) • Solvent: dimethyl sulphoxide To prepare an appropriate active ingredient formulation, 10 mg of active ingredient are mixed with 0.5 ml of dimethyl sulphoxide, and the concentrate is diluted with water to the desired concentration. Vessels containing a sponge which has been treated with the active ingredient formulation of the desired concentration are populated with Musca domestica adults. After 2 days, the kill rate in % is determined. 100% means that all flies were killed; 0% means that no flies were killed.

For data set [11], the system named is green peach aphid (Myzus persicae). The experiment in a line: Myzus test (MYZUPE spray treatment), Example 17. It counts as in vivo. Particulars: china cabbage leaf discs sprayed, after 6 days. An outline of the steps:
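Efficacy recorded at 6 days as % kill, where 100% means every aphid dead and 0% none. Spray applied to Brassica pekinensis leaf discs bearing mixed-stage aphids; active ingredient dissolved in acetone with dimethylformamide and emulsifier, then diluted with emulsifier-containing water.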

Take `O=C(/C=C/c1ccc(C(=O)NC2CC2)c(Br)c1)NC(c1cccc(C(F)(F)F)c1)C(F)(F)F` (centres unmarked) [Ia-42]: the “kill rate in % (efficacy)” value in data set [1] and in data set [3] was 100% each time. For the same compound, in data set [2], the logP result was “HPLC-MS: logP = 3.23; mass”. Besides, the “efficacy in % (fertile eggs laid)” value in [4] and in data set [5] was 100% throughout.

As for `O=C(/C=C/c1ccc(C(=O)NCc2ccccc2)c(C(F)(F)F)c1)NC(c1cccc(C(F)(F)F)c1)C(F)(F)F` (centres unmarked) [Ia-31], the “kill rate in % (efficacy)” value in data set [6] is on record as 90%; in data set [1], 95%. In addition, the logP result in [2] was “HPLC-MS: logP = 3.68; mass”. The “efficacy in % (fertile eggs laid)” value in data set [4] and in data set [5] was 100% in each case.

Regarding `O=C(/C=C/c1ccc(C(=O)NC2CC2)c(C(F)(F)F)c1)NC(c1cc(Cl)cc(Cl)c1)C(F)(F)F` (centres unmarked) [Ia-24], the entries for the “kill rate in % (efficacy)” value in data set [1] and in data set [3] were 100% and 80%, respectively. Besides, the logP result in data set [2] was “HPLC-MS: logP = 3.5; mass”. Also, the “efficacy in % (fertile eggs laid)” value in [4] and in data set [5] was 100% in each case.

Turning to `O=C(/C=C/c1ccc(C(=O)NCc2ccccn2)c(C(F)(F)F)c1)NC(c1ccc(Cl)c(Cl)c1)C(F)(F)F` (centres unmarked) [Ia-32], the efficacy in % in data set [7] (application rate 500 g/ha) amounted to 83%. The “kill rate in % (efficacy)” value in data set [1] was 100%. Also, the logP result in data set [2] is reported as “HPLC-MS: logP = 2.98; mass”. The “efficacy in % (fertile eggs laid)” value in [4] and in [5] was 100% in each case.

In [7] (application rate 100 g/ha), `CNC(=O)c1ccc(/C=C/C(=O)NC(c2cccc(C(F)(F)F)c2)C(F)(F)F)cc1C(F)(F)F` (centres unmarked) [Ia-147] returned an efficacy in % of 100%. For the same compound, the “kill rate in % (efficacy)” value in data set [6] is 80%. Moreover, the logP result in [2] is reported as “HPLC-MS: logP = 3.09; mass”. In addition, the “efficacy in % (fertile eggs laid)” value in [4] amounted to 100%.

For the compound `O=C(/C=C/c1ccc(C(=O)NCc2ccc(F)cn2)c(C(F)(F)F)c1)NC(c1cccc(C(F)(F)F)c1)C(F)(F)F` (centres unmarked) [Ia-73], the “kill rate in % (efficacy)” value stood at 80% in data set [6] and 95% in data set [1]. The logP entry in data set [2] is recorded as “HPLC-MS: logP = 3.31; mass”. Besides, the “efficacy in % (fertile eggs laid)” value in data set [4] and in data set [5] was 100% each time. Moreover, the efficacy in % in [8] and in data set [9] was 100% each time.

With `NC(=O)c1ccc(/C=C/C(=O)NC(c2cccc(C(F)(F)F)c2)C(F)(F)F)cc1C(F)(F)F` (centres unmarked) [Ia-142], the “kill rate in % (efficacy)” value in [10] and in [6] was 90% each time. Further, the efficacy in % in data set [11] (application rate 100 g/ha) came to 100%. For the same compound, the logP result in data set [2] was “HPLC-MS: logP = 2.89; mass”. Moreover, the “efficacy in % (fertile eggs laid)” value in data set [4] was determined as 100%.

For `O=C(/C=C/c1ccc(C(=O)NCc2ccc(Cl)nc2)c(C(F)(F)F)c1)NC(c1cccc(C(F)(F)F)c1)C(F)(F)F` (centres unmarked) [Ia-80], the “kill rate in % (efficacy)” value worked out at 80% in [6] and 100% in [1]. Also, the logP result in [2] is “HPLC-MS: logP = 3.65; mass”. Further, the “efficacy in % (fertile eggs laid)” value in data set [4] and in data set [5] was 100% throughout. In addition, the efficacy in % in data set [9] worked out at 100%.

In the case of `CC(NC(=O)c1ccc(/C=C/C(=O)NC(c2cccc(C(F)(F)F)c2)C(F)(F)F)cc1C(F)(F)F)c1ccccn1` (centres unmarked) [Ia-128], the “kill rate in % (efficacy)” value in [6] is 90%. Moreover, the logP result in data set [2] is “HPLC-MS: logP = 3.22; mass”. In addition, the “efficacy in % (fertile eggs laid)” value in [4] turned out to be 100%.

With `CC(Cn1cccn1)NC(=O)c1ccc(/C=C/C(=O)NC(c2cccc(C(F)(F)F)c2)C(F)(F)F)cc1C(F)(F)F` (centres unmarked) [Ia-139], in data set [6], the “kill rate in % (efficacy)” value is recorded as 80%. Also, the logP result in [2] is “HPLC-MS: logP = 3.42; mass”. The “efficacy in % (fertile eggs laid)” value in [4] was determined as 100%.

Consider `COCCNC(=O)c1ccc(/C=C/C(=O)NC(c2cccc(C(F)(F)F)c2)C(F)(F)F)cc1C(F)(F)F` (centres unmarked) [Ia-58], for which the efficacy in % in data set [7] (application rate 500 g/ha) is listed as 83%; in data set [11] (application rate 500 g/ha) it was 100%; in data set [8], 90%; in data set [9] it was 100%. In addition, the “kill rate in % (efficacy)” value in [1] is 98%. The logP result in data set [2] is “HPLC-MS: logP = 3.12; mass”. In addition, the “efficacy in % (fertile eggs laid)” value in [4] and in data set [5] was 100% throughout.

Consider `O=C(/C=C/c1ccc(C(=O)NC2CC2)c(Cl)c1)NC(c1cccc(C(F)(F)F)c1)C(F)(F)F` (centres unmarked) [Ia-43], for which the efficacy in % in data set [11] (application rate 500 g/ha) is 80%; in data set [9] it was 100%. Besides, the “kill rate in % (efficacy)” value in [1] and in data set [3] was 100% in each case. In addition, in [2], the logP entry was “HPLC-MS: logP = 3.22; mass”. In addition, the “efficacy in % (fertile eggs laid)” value in [4] and in data set [5] was 100% each time.

`Cc1cc(/C=C/C(=O)NC(c2cccc(C(F)(F)F)c2)C(F)(F)F)ccc1C(=O)NCc1ccccn1` (centres unmarked) [Ia-22]: the efficacy in % in [11] (application rate 500 g/ha) and in data set [9] was 100% in each case. The “kill rate in % (efficacy)” value in data set [1] stood at 100%; in data set [3] it was 90%. In addition, in data set [2], the logP entry is “HPLC-MS: logP = 2.65; mass”. Also, the “efficacy in % (fertile eggs laid)” value in data set [4] and in data set [5] was 100% each time.

Compound `O=C(/C=C/c1ccc(C(=O)NC2CSC2)c(Cl)c1)NC(c1cccc(C(F)(F)F)c1)C(F)(F)F` (centres unmarked) [Ia-152] returned an efficacy in % in [11] (application rate 100 g/ha) of 80%. Also, the “kill rate in % (efficacy)” value in data set [6] is given as 90%. Besides, the logP result in [2] is given as “HPLC-MS: logP = 3.51; mass”. Further, the “efficacy in % (fertile eggs laid)” value in data set [4] is given as 100%.

As to `O=C(/C=C/c1ccc(C(=O)NC2COC2)c(Br)c1)NC(c1cccc(C(F)(F)F)c1)C(F)(F)F` (centres unmarked) [Ia-94], in data set [6], the “kill rate in % (efficacy)” value is recorded as 95%. For the same compound, the logP entry in data set [2] is reported as “HPLC-MS: logP = 2.8 mass”. Also, the “efficacy in % (fertile eggs laid)” value in data set [4] is reported as 100%. Moreover, the efficacy in % was 80% in data set [8] and 100% in [9].

In the case of `CC(NC(=O)c1ccc(/C=C/C(=O)NC(c2c(F)cccc2F)C(F)(F)F)cc1C(F)(F)F)C(F)(F)F` (centres unmarked) [Ia-29], the “kill rate in % (efficacy)” value in data set [6] is recorded as 80%. Also, the logP entry in data set [2] is “HPLC-MS: logP = 3.41; mass”. Further, the “efficacy in % (fertile eggs laid)” value in [4] and in [5] was 100% in each case.

In the case of `CC(NC(=O)c1ccc(/C=C/C(=O)NC(c2cccc(C(F)(F)F)c2)C(F)(F)F)cc1Br)c1ccccn1` (centres unmarked) [Ia-134], in [6], the “kill rate in % (efficacy)” value is listed as 90%. Further, in [2], the logP result was “HPLC-MS: logP = 3.11; mass”. Besides, the “efficacy in % (fertile eggs laid)” value in data set [4] is given as 100%.
